Experimental data taken from US7485634B2, “Azepinoindole and pyridoindole derivatives as pharmaceutical agents” (Exelixis, Inc., priority 2002, dated 2009).
pEC50, pIC50: −log10 of the molar value. Read-outs that look alike come from different tables or passages of the source.

Tests used:
farnesoid X receptor = biological target: T1, farnesoid X receptor (Homo sapiens, UniProt Q96RI1); assay: one or more of the in vitro assays described herein (TR-FRET assay, Example 75; co-transfection assay, Example 76); conditions: for Emax: read-out: efficacy; for inhibition: 100% = baseline (DMSO only);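 as to all read-outs here: TR-FRET assay or luciferase reporter in CV-1 monkey kidney cells co-transfected with human FXR and RXRα, dose-response over 8 half-log concentrations, CDCA added in antagonist mode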
T1 construct: fused on or other part: GST fused in frame to the N-terminus of the LBD (TR-FRET assay only); Nothing is fused on in the co-transfection assay
T1 sequence (Q96RI1 244-471 isoform Q96RI1-2 limits assumed): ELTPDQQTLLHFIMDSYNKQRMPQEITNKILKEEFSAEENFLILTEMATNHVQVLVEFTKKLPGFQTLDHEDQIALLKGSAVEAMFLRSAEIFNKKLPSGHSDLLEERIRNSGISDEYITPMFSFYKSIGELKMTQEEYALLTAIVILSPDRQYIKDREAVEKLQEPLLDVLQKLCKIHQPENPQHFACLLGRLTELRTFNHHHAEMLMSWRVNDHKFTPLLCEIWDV

[1] = biological target: T2, full length human farnesoid X receptor (Homo sapiens, UniProt Q96RI1); assay: farnesoid X receptor/ECREx7 co-transfection assay (luciferase reporter, CV-1 cells); type: cell-based; conditions: read-out: agonist activity EC50
T2 construct: CMX-farnesoid X receptor (full length human farnesoid X receptor); expressed in transfected cells; host or cells: CV-1 African Green Monkey Kidney cells
T2 sequence (Q96RI1 1-472 isoform Q96RI1-2): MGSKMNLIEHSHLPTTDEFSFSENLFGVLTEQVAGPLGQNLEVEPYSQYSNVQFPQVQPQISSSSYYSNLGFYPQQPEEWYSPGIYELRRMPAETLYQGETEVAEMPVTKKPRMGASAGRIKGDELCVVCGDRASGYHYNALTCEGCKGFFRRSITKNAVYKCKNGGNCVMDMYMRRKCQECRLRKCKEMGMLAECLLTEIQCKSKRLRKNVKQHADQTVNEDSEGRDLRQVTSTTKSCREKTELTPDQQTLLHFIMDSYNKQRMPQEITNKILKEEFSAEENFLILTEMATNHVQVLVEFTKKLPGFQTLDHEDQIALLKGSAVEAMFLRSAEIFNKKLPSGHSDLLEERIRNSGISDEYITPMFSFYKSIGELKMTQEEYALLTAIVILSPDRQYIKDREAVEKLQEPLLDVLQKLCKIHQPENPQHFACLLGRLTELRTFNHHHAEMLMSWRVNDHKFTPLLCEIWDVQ
T2 sequence (P19793 1-462 partner): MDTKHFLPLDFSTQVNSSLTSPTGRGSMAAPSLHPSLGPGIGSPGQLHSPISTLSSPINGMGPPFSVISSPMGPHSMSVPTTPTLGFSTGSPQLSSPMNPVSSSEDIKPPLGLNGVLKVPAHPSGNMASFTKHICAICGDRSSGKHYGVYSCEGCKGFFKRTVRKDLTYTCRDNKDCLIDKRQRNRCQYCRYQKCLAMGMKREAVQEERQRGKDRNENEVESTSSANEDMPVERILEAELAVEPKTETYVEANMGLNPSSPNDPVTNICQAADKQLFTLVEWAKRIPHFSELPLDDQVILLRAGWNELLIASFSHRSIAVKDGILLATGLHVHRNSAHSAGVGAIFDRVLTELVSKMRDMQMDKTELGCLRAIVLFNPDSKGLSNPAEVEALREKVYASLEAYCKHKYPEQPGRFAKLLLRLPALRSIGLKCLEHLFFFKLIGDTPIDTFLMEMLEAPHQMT
Procedure: The basic co-transfection protocol for measuring the farnesoid X receptor activity is as follows. CV-1 African Green Monkey Kidney cells were plated 24 hours before transfection to achieve approximately 70-80 percent confluency. Cells were transfected with the following expression vectors, CMX-farnesoid X receptor (full length human farnesoid X receptor), CMX-RXRα (full length human RXR), Luc12 (ECREx7-Tk-Luciferase) luciferase reporter gene construct. (See WO 00/76523, Venkateswaran et al., (2000) J. Biol. Chem. 275 14700-14707). A CMX-β-Galactosidase expression vector was used as a transfection control. The transfection reagent used was DOTAP (Boehringer Mannheim). Cells were incubated with the DOTAP/DNA mixture for 5 hours after which the cells were harvested and plated onto either 96 well or 384 well plates containing the appropriate concentration of test compound. The assay was allowed to continue for an additional 18-20 hours, after which the cells were lysed, with lysis buffer (1% triton X 100, 10% glycerol, 5 mM Dithiothreitol, 1 mM EGTA, 25 mM Tricine, pH 7.8) and the luciferase activity measured in the presence of Luciferase assay buffer (0.73 mM ATP, 22.3 mM Tricine, 0.11 mM EGTA, 0.55 mM Luciferin, 0.15 mM Coenzyme A, 0.5 mM HEPES, 10 mM Magnesium sulphate) on a standard luminomter plate reader (PE Biosystems, NorthStar Reader), using recommended operating instructions and conditions.
Both the farnesoid X receptor/ECREx7 co-transfection assay (Example 76) and the TR-FRET assay (Example 75) can be used to establish the EC50/IC50 values for potency and percent activity or inhibition for efficacy. Efficacy defines the activity of a compound relative to a high control (chenodeoxycholic acid, CDCA) or a low control (DMSO/vehicle). The dose response curves are generated from an 8 point curve with concentrations differing by ½ LOG units. Each point represents the average of 4 wells of data from a 384 well plate. The curve for the data is generated by using the equation: Y=Bottom+(Top−Bottom)/(1+10^((LogEC50−X)*HillSlope))
The EC50/IC50 is therefore defined as the concentration at which an agonist or antagonist elicits a response that is half way between the Top (maximum) and Bottom (baseline) values. The EC50/IC50 values represented are the averages of at least 3 independent experiments. The determination of the relative efficacy or % control for an agonist is by comparison to the maximum response achieved by chenodeoxycholic acid that is measured individually in each dose response experiment.
For the antagonist assay, CDCA is added to each well of a 384 well plate to elicit a response. The % inhibition for each antagonist is therefore a measurement of the inhibition of the activity of CDCA.

[2] = one or more of the in vitro assays, read-out: EC50 (agonist / partial agonist)
[3] = relative to maximum response of chenodeoxycholic acid (CDCA)
[4] = inhibition of the activity of CDCA
[5] = inhibition of the activity of CDCA, read-out: IC50 (antagonist / partial agonist)

pEC50 (farnesoid X receptor; [2])	Emax (farnesoid X receptor; [3]) [%]	SMILES	inhibition (farnesoid X receptor; [4]) [%]	pIC50 (farnesoid X receptor; [5])	also measured
> 7.00	> 100	CCOC(=O)C1=CN(C(=O)c2ccc(F)c(F)c2)CC2(CCCC2)c2c1[nH]c1ccccc21 [3-(3,4-difluorobenzoyl)-1,1-tetramethylene-1,2,3,6-tetrahydroazepino[4,5-b]indole-5-carboxylic acid ethyl ester]			
		CCOC(=O)C1=CN(C(=O)c2cccc(F)c2)CCc2c1[nH]c1ccccc21 [3-(3-fluorobenzoyl)-1,2,3,6-tetrahydroazepino[4,5-b]indole-5-carboxylic acid ethyl ester]			pEC50 [1]: > 6.00
		CCOC(=O)C1=CN(C(=O)c2ccc(F)cc2)CC(C)(C)c2c1[nH]c1cc(N(C)C(=O)NCc3ccccn3)ccc21 [3-(4-fluorobenzoyl)-1,1-dimethyl-8-(1-methyl-3-pyridin-2-ylmethylureido)-1,2,3,6-tetrahydroazepino[4,5-b]indole-5-carboxylic acid ethyl ester]	100	> 7.00	
		CCOC(=O)C1=CN(C(=O)c2ccc(F)cc2)CC(C)(C)c2c1[nH]c1cc(OC(=O)NCc3ccccn3)ccc21 [3-(4-fluorobenzoyl)-1,1-dimethyl-8-(pyridin-2-yl-methylcarbamoyloxy)-1,2,3,6-tetrahydroazepino[4,5-b]indole-5-carboxylic acid ethyl ester]			pEC50 (farnesoid X receptor): > 6.70; pIC50 (farnesoid X receptor): > 6.70; Emax (farnesoid X receptor): 10 to 30%
		CCOC(=O)C1=CN(C(=O)c2ccc(F)cc2)CC(C)(C)c2c1[nH]c1cc(OC(=O)NCc3cccs3)ccc21 [3-(4-fluorobenzoyl)-1,1-dimethyl-8-(thiophen-2-ylmethylcarbamoyloxy)-1,2,3,6-tetrahydroazepino[4,5-b]indole-5-carboxylic acid ethyl ester]	100	> 7.00	
		CCOC(=O)C1=CN(C(=O)c2ccc(F)cc2)CC(C)(C)c2c1[nH]c1cc(OC(=O)NC(C)C)ccc21 [3-(4-fluorobenzoyl)-1,1-dimethyl-8-isopropylcarbamoyloxy-1,2,3,6-tetrahydroazepino[4,5-b]indole-5-carboxylic acid ethyl ester]	100	> 7.00	
> 7.00	> 100	CC1Cc2c([nH]c3ccccc23)C(C(=O)NC2CCC2)=CN1C(=O)c1ccc(F)cc1 (stereo not drawn) [3-(4-fluorobenzoyl)-2-methyl-1,2,3,6-tetrahydroazepino[4,5-b]indole-5-carboxylic acid cyclobutylamide]			
		CCOC(=O)C1=CN(C(=O)c2ccc(F)cc2)CC(C)(C)c2c1[nH]c1cc(N(C)C(=O)NC3CC3)ccc21 [8-(3-cyclopropyl-1-methylureido)-3-(4-fluorobenzoyl)-1,1-dimethyl-1,2,3,6-tetrahydroazepino[4,5-b]indole-5-carboxylic acid ethyl ester]	100	> 7.00	
		CCOC(=O)C1=CN(C(=O)c2ccc(F)cc2)CC(C)(C)c2c1[nH]c1cc(OC(=O)NC3CC3)ccc21 [8-cyclopropylcarbamoyloxy-3-(4-fluorobenzoyl)-1,1-dimethyl-1,2,3,6-tetrahydroazepino[4,5-b]indole-5-carboxylic acid ethyl ester]	100	> 7.00	
		CCOC(=O)C1=CN(C(=O)c2ccc(F)cc2)CC(C)(C)c2c1[nH]c1ccc(N(Cc3ccccc3)C(=O)N(C)C)cc21 [9-(1-benzyl-3,3-dimethyl-ureido)-3-(4-fluoro-benzoyl)-1,1-dimethyl-1,2,3,6-tetrahydro-azepino[4,5-b]indole-5-carboxylic acid ethyl ester]	100	> 7.00	
> 7.00	> 100	CCOC(=O)C1=CN(C(=O)c2ccc(F)cc2)CC(C)(C)c2c1[nH]c1ccc(F)cc21 [9-Fluoro-3-(4-fluoro-benzoyl)-1,1-dimethyl-1,2,3,6-tetrahydro-azepino[4,5-b]indole-5-carboxylic acid ethyl ester]			
> 7.00	> 100	CCOC(=O)C1=CN(C(=O)c2ccc(F)c(F)c2)CC(C)c2c1[nH]c1ccccc21 (stereo not drawn) [ethyl 3-(3,4-difluorobenzoyl)-1-methyl-1,2,3,6-tetrahydroazepino[4,5-b]indole-5-carboxylate]			
	> 100	CC(C)OC(=O)C1=CN(C(=O)c2ccc(F)c(F)c2)CC(C)(C)c2c1[nH]c1ccccc21 [isopropyl 3-(3,4-difluorobenzoyl)-1,1-dimethyl-1,2,3,6-tetrahydroazepino[4,5-b]indole-5-carboxylate]			
> 7.00	> 100	CC(C)OC(=O)C1=CN(C(=O)c2ccc(F)c(F)c2)CC(C)c2c1[nH]c1ccccc21 (stereo not drawn) [isopropyl 3-(3,4-difluorobenzoyl)-1-methyl-1,2,3,6-tetrahydroazepino[4,5-b]indole-5-carboxylate]			

SMILES	pEC50 (farnesoid X receptor; [2])	Emax (farnesoid X receptor; [3]) [%]	inhibition (farnesoid X receptor; [4]) [%]	pIC50 (farnesoid X receptor; [5])	also measured
CCOC(=O)C1=CN(C(=O)c2ccc(F)cc2)CC(C)(C)c2c1[nH]c1cc(OC(=O)NCCc3ccccn3)ccc21 [3-(4-fluorobenzoyl)-1,1-dimethyl-8-(2-pyridin-2-yl-ethylcarbamoyloxy)-1,2,3,6-tetrahydroazepino[4,5-b]indole-5-carboxylic acid ethyl ester]	> 6.70	10 to 30		> 6.70	
CCOC(=O)C1=CN(C(=O)c2ccc(F)cc2)CC(C)(C)c2c1[nH]c1cc(OC(=O)NCc3cnc(C)cn3)ccc21 [3-(4-fluorobenzoyl)-1,1-dimethyl-8-(5-methylpyrazin-2-ylmethylcarbamoyloxy)-1,2,3,6-tetrahydroazepino[4,5-b]indole-5-carboxylic acid ethyl ester]	> 6.70	10 to 30		> 6.70	
CCOC(=O)C1=CN(C(=O)c2ccc(F)cc2)CC(C)(C)c2c1[nH]c1cc(OC(=O)NCc3cccnc3)ccc21 [3-(4-fluorobenzoyl)-1,1-dimethyl-8-(pyridin-3-ylmethylcarbamoyloxy)-1,2,3,6-tetrahydroazepino[4,5-b]indole-5-carboxylic acid ethyl ester]	> 6.70	10 to 30		> 6.70	
CCOC(=O)C1=CN(C(=O)c2ccc(F)cc2)CC(C)(C)c2c1[nH]c1cc(OC(=O)NC3CCCCC3)ccc21 [8-cyclohexylcarbamoyloxy-3-(4-fluorobenzoyl)-1,1-dimethyl-1,2,3,6-tetrahydroazepino[4,5-b]indole-5-carboxylic acid ethyl ester]	> 6.70	10 to 30		> 6.70	
